Experimental data from US9724337B2, “AG-205 for the treatment of breast cancer” (University of Kentucky Research Foundation, priority 2009, dated 2017).

Tests used:
EGFR [1] = assay: Western blot of EGFR levels in MDA-MB-468 cells; assay type: cell-based, human; conditions: 12-50 μM dose
Description: (§1) Panel A is a diagram indicating the positions of the siRNA molecules targeting Pgrmc1. Exons 1, 2 and 3 are indicated by “ex”. MDA-MB-468 cells were transfected with a control siRNA (siCON, lanes 1 and 3) or two separate siRNAs targeting Pgrmc1 (siPGR and siPGR2, lanes 2 and 4, respectively). In panels B-E and H-L, protein levels were analyzed by western blot for EGFR (B), phospho-tyrosine (C), Pgrmc1 (D) and ku70 (E), as a control for protein loading. Panels F—H show western blot analyses for (F) IGF-1R, (G) c-Kit and (H) tfR. In panels I and J, transcript levels were analyzed by reverse transcriptase-PCR for EGFR (I) and Pgrmc1 (J). The top band indicates the gene of interest, while actin primers were included in the same reaction as a control for cDNA loading. […] In panels K-L, MDA-MB-468 cells were treated with increasing doses of the Pgrmc1 ligand AG-205. Protein expression was analyzed by western blot for EGFR (K) and ku70 (L). Cells were treated with 0 (lanes 1), 2 (lanes 2), 10 (lanes 3) or 50 (lanes 4) μM AG-205 for 24 hours in serum-free medium. In panels M-N, A549 cells were treated with the same doses and analyzed for EGFR (M) and ku70 (N). […] Expression analyses were repeated at least in duplicate throughout.
(§2) Immunological techniques. […]

AtMAPR2 = molecular target: T1, AtMAPR2 (Arabidopsis thaliana, UniProt Q9SK39); conditions: in silico screen then binding assay, 2005; cited from earlier work
T1 sequence (Q9SK39 1-100): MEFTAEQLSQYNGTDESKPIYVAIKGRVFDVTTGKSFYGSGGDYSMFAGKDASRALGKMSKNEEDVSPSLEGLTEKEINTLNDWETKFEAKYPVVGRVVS

[2] = test system: polyADP ribose polymerase (PARP) or caspase 3; assay: Cleavage of PARP or caspase 3 in AG-205-treated cancer cells; assay type: cell-based, human; conditions: AG-205-treated cells losing viability
Description: (§3) Immunological techniques. Cells were extracted in RIPA buffer (50 mM Tris, pH 8.0, 1% Nonidet P-40, 150 mM NaCl, 0.5% sodium deoxycholate, 0.1% sodium dodecyl sulfate, 1 mM phenylmethylsulfonyl fluoride, 10 μg/ml of aprotinin, leupeptin and pepstatin) for standard western blotting. The antibodies used in the study were anti-caveolin-1 (N-20, Santa Cruz Biologicals, # sc-894), anti-EGFR (1005, Santa Cruz, # sc-03), anti-ku70 (A-9, Santa Cruz # sc-5309), anti-Met (C-12, Santa Cruz # sc-10), anti-PARP (H-250, Santa Cruz # sc-7150), anti-phosphotyrosine (P-Tyr-100, Cell Signaling), anti-Pgrmc1 (Novus Biologics) and anti-tubulin (Neomarkers). Some western blots for Pgrmc1 were performed with a polyclonal antibody called anti-PGR-UK1 which was raised in rabbits to an internal 10 amino acid peptide.

[3] = test system: Met receptor tyrosine kinase; assay: Western blot of Met in A549 cells; assay type: cell-based, human
Description: as §3

A549 cells = assay: FACS cell cycle analysis; assay type: cell-based, human; conditions: triplicate FACS analysis, AG-205-treated cells
Description: (A) Graph of triplicate FACS analysis. […] (B) Protein expression was analyzed by western blot for Pgrmc1 (top) and ku70 (bottom). Cells were treated with 0 (lanes 1), 2 (lanes 2), 10 (lanes 3) or 50 (lanes 4) μM AG-205 for 24 hours. […] (C-D) The panels show western blots of phosphorylated ERK1/2 (upper panels) and total ERK1/2 (lower panels) The lanes in panel C are A549/con (lane 1), A549/RNAi (lane 2), A549/LacZ (lane 3) and A549/PGR-hbd cells (lane 4) following 48 hours serum starvation. The cells infected with adenovirus were similar to those described in FIG. 3, panels C and D. In panel D, A549 cells were treated with vehicle (lane 1) or 20 μM AG-205 (lane 2) for 24 hours in serum-free media. (E) A549/con (solid line) or A549/RNAi (dashed line) cells were treated with increasing doses of AG-205 for 72 hours and viability was measured by counting, and “% viability” refers to the cell number relative to the untreated control. […] Percent viability was determined by cell counting, and “% viability” refers to the cell number relative to the untreated control. […]
FACS was performed essentially as described previously (Mallory (2005)). […] FACS analysis was performed at the University of Kentucky flow cytometry facility, and the data were analyzed using Modfit software (Verity, Inc.).

MDA-MB-231 = assay: AG-205 viability assay in MDA-MB-231 cells; assay type: cell-based; conditions: MDA-MB-231, breast, serum-starved, EGFR wild-type
Description: (A) Pgrmc1 (SEQ ID NO: 7) shares homology with AtMAPR2 (SEQ ID NO: 8) (underlined residues), which was the target for a screen for small molecule ligands. The putative heme-binding Tyr106 and Tyr112 are indicated with black boxes. (B) The molecular structure of AG-205 includes multiple aromatic components. (C) Spectroscopic scan of Pgrmc1 with vehicle control compared with vehicle plus 50 µM AG-205. The decrease in relative absorbance at 400 nm is consistent with an AG-205-induced change in the spectral properties of Pgrmc1-heme. The scan is representative of four separate scans using different Pgrmc1 protein preparations. […] Percent viability was determined by cell counting, and “% viability” refers to the cell number relative to the untreated control.
Proliferation, anchorage-independent growth and migration assays. […] Following the harvest of the final time point, the cells from each time point were counted using a Bright-line hemocytometer (Hausser Scientific).
MTT viability assays were performed as described previously. […] The cells were then incubated with 0.5 mg/ml of 3-[4,5-dimethylthiazol-2-y]-2,5-diphenyltetrazolium bromide for 1.5 hours, at which time the media was removed, the precipitated crystals were dissolved in dimethyl sulfoxide, and the absorbance at 590 nm was measured using a Bio-Tek μQuant spectrophotometer.

EGFR [4] = assay: Western blot of EGFR levels in A549 cells; assay type: cell-based, human
Description: as §1, §2

Pgrmc1-heme complex = Pgrmc1-heme complex (Homo sapiens, UniProt O00264); assay: Spectroscopic scan of purified Pgrmc1 with AG-205; assay type: binding; conditions: AG-205 added to purified Pgrmc1, spectroscopic scan
Chain of Pgrmc1-heme complex (O00264 whole entry, one chain of several): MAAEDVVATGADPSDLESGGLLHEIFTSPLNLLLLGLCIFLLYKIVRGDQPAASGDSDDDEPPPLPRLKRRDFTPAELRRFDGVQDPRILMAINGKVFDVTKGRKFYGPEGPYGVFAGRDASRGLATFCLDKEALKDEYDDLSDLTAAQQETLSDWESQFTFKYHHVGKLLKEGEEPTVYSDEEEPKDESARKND
Description: (A) Pgrmc1 (SEQ ID NO: 7) shares homology with AtMAPR2 (SEQ ID NO: 8) (underlined residues), which was the target for a screen for small molecule ligands. The putative heme-binding Tyr106 and Tyr112 are indicated with black boxes. (B) The molecular structure of AG-205 includes multiple aromatic components. (C) Spectroscopic scan of Pgrmc1 with vehicle control compared with vehicle plus 50 µM AG-205. The decrease in relative absorbance at 400 nm is consistent with an AG-205-induced change in the spectral properties of Pgrmc1-heme. The scan is representative of four separate scans using different Pgrmc1 protein preparations. The lower scan is a comparison of purified Pgrmc1 without and with the vehicle control (DMSO). Panels D (A549 cells) and E (MDA-MB-231 cells) are viability assays of cells maintained in 0.1% serum (solid line) or 10% serum (dashed line) and treated with increasing doses of AG-205. Percent viability was determined by cell counting, and “% viability” refers to the cell number relative to the untreated control.

Pgrmc1 [5] = molecular target: T2, Pgrmc1 (Homo sapiens, UniProt O00264); assay: Western blot of Pgrmc1 levels in MDA-MB-468 cells; assay type: cell-based
T2 sequence (O00264 whole entry): as the sequence (O00264 whole entry, one chain of several) above
Description: as §3

ku70 = assay: Western blot of ku70 levels in MDA-MB-468 cells; assay type: cell-based, human; conditions: AG-205 treatment
Description: as §1, §2

A431 = assay: AG-205 viability assay in A431 cells; assay type: cell-based; conditions: A431, epitheloid, serum-starved, EGFR wild-type
EGFR [6] = assay: EGFR immunofluorescence localization in MDA-MB-468 cells; assay type: cell-based, human; conditions: AG-205-treated cells after 24 hours, 20 μM
Description: To test this model, EGFR was stained by immunofluorescence 24 hours after treatment with 20 μM AG-205 in MDA-MB-468 cells. In cells treated with the vehicle control, EGFR localized to the cell membrane. In contrast, EGFR localized to both the cell membrane and an intracellular ring which corresponds to the perinuclear region of the cell. Also, Pgrmc1 may control the uptake from the membrane to the perinuclear region.
Immunofluorescence for EGFR was performed as described previously (Crudden et al., (2005) Tumour Biol 26:142-6). Cells were grown on chamber slides, washed and fixed with 3.7% formaldehyde. The cells were then permeabilized with 0.1% Triton X-100 in phosphate-buffered saline, blocked with 10% serum and incubated, in turn, with anti-EGFR 1005 and a Texas red-labeled anti-rabbit secondary antibody.

H157 = assay: AG-205 viability assay in H157 cells; assay type: cell-based; conditions: H157, lung, serum-starved, EGFR wild-type
Description: Proliferation, anchorage-independent growth and migration assays. For growth curves, cells were plated in 24 well dishes and grown in 10% serum-containing medium. At various times, the cells were harvested with trypsin and fixed with formaldehyde added to a final concentration of 3.7%. Following the harvest of the final time point, the cells from each time point were counted using a Bright-line hemocytometer (Hausser Scientific).
MTT viability assays were performed as described previously. Briefly, cells were plated in 96-well tissue culture dishes and grown in various media with different drug doses. The cells were then incubated with 0.5 mg/ml of 3-[4,5-dimethylthiazol-2-y]-2,5-diphenyltetrazolium bromide for 1.5 hours, at which time the media was removed, the precipitated crystals were dissolved in dimethyl sulfoxide, and the absorbance at 590 nm was measured using a Bio-Tek μQuant spectrophotometer.

NIH-3T3 cells = assay: Growth inhibition of NIH-3T3 cells; assay type: cell-based; conditions: wild-type EGFR
focal adhesion kinase = assay: Western blot of focal adhesion kinase in A549 cells; assay type: cell-based, human
Description: as §3

SK-Br-3 cells = assay: Growth inhibition of SK-Br-3 cells; assay type: cell-based; conditions: modest EGFR, extremely high HER2/neu
Description: Tissue culture. MDA-MB-468 cells were a kind gift from Dr. Rina Plattner of the University of Kentucky and were maintained in medium consisting of Dulbecco's Modified Eagle Medium containing 10% serum supreme (Fisher) and antibiotics. Cells were grown at 37° C. in 5% CO2 in air. A549 and HCC827 lung cancer cells, as well as SK-Br-3 breast cancer cells were obtained from the ATCC (American Type Culture Collection) and were grown under the same conditions. The H1650 lung cancer cell line was a kind gift from Dr. Heinz Kohler of the University of Kentucky. The Pgrmc1 ligand AG-205 was purchased from Timtec, Inc. The EGFR inhibitor AG1478 was from Biomol, Inc. and was used at a concentration range of 0.8-40 μM.

Pgrmc1 [7] = molecular target: T2, Pgrmc1; assay: Western blot of Pgrmc1 in A549 cells; assay type: cell-based; design: endogenous in cells; host or cells: A549 cells; conditions: A549 cells, 2, 10 or 50 μM for 24 hours
Description: (A) Graph of triplicate FACS analysis. […] (B) Protein expression was analyzed by western blot for Pgrmc1 (top) and ku70 (bottom). Cells were treated with 0 (lanes 1), 2 (lanes 2), 10 (lanes 3) or 50 (lanes 4) μM AG-205 for 24 hours. […] (C-D) The panels show western blots of phosphorylated ERK1/2 (upper panels) and total ERK1/2 (lower panels) The lanes in panel C are A549/con (lane 1), A549/RNAi (lane 2), A549/LacZ (lane 3) and A549/PGR-hbd cells (lane 4) following 48 hours serum starvation. The cells infected with adenovirus were similar to those described in FIG. 3, panels C and D. In panel D, A549 cells were treated with vehicle (lane 1) or 20 μM AG-205 (lane 2) for 24 hours in serum-free media. (E) A549/con (solid line) or A549/RNAi (dashed line) cells were treated with increasing doses of AG-205 for 72 hours and viability was measured by counting, and “% viability” refers to the cell number relative to the untreated control. (F) Cells expressing LacZ (solid line) or the Pgrmc1-hbd heme binding-deficient mutant (dashed line), were treated with increasing doses of AG-205. […] Percent viability was determined by cell counting, and “% viability” refers to the cell number relative to the untreated control. For each experiment, the results are representative of experiments performed at least in duplicate.
as §2

Cc1ccc2c(c1)[C@H]1CN(C)CC[C@H]1N2C(=O)CSc1nnnn1-c1ccc(Cl)cc1 [AG-205]
decrease in EGFR levels (EGFR [1]): 14 fold | binding to At Pgrmc1 (AtMAPR2) (AtMAPR2): bind to At Pgrmc1 | cleavage of PARP or caspase 3 [2]: did not detect an increase | stability of Met receptor tyrosine kinase [3]: little effect | cell cycle distribution (A549 cells): significant G1 arrest and accumulation of sub-G1 cells | IC50 (MDA-MB-231): 18 µM | dose with optimal EGFR de-stabilizing activity (EGFR [4]): 20 to 50 µM | EGFR stability (EGFR [4]; increasing doses): de-stabilized EGFR in a dose-dependent manner | change in absorbance of purified Pgrmc1 (Pgrmc1-heme complex): shift in absorbance at approximately 400 nm | increase in Pgrmc1 levels (Pgrmc1 [5]; 12 μM dose): 4.8 fold | Pgrmc1 levels (Pgrmc1 [5]; doses of 25 and 50 μM): nearly undetectable levels | Ku70 levels (ku70): not affected | IC50 (A431): 8 µM | EGFR localization (EGFR [6]): EGFR localized to the perinuclear region of the cell | IC50 (H157): 10 µM | growth inhibition (NIH-3T3 cells): inhibited | stability of focal adhesion kinase (focal adhesion kinase): little effect | sensitivity to growth inhibition (SK-Br-3 cells): relatively insensitive | Pgrmc1 expression (Pgrmc1 [7]): increases Pgrmc1 expression
